We go through 27 compounds from US8735414B2 (priority 2009, dated 2014).

Where only a bound is given, the exact number is not on record here.

For data set [1], the system named is bicistronic HCV replicon (replicon RNA, GenBank Accession No. AJ242654). In words: HCV Replicon Assay. The data set is classed as cell-based. The note with it: Hepatitis C virus, 72 h, read-out: Replicon IC50.

Compound `COc1cc2c(C#N)c(-c3ccc(S(=O)(=O)N[C@@H](C)C(F)(F)F)cn3)n(C3CCC3)c2cc1C` [compound 757, 6-(3-cyano-1-cyclobutyl-5-methoxy-6-methyl-1H-indol-2-yl)-N-[(2S)-1,1,1-trifluoropropan-2-yl]pyridine-3-sulfonamide] registered a melting point of 222 to 223 °C. Moreover, the IC50 in data set [1] was in the range of 500 to 2000 nM. For `N#Cc1c(-c2ccc(S(=O)(=O)NC(CF)CF)cn2)n(C2CCCC2)c2cc(OC(F)F)ccc12` [compound 49, 6-[3-cyano-1-cyclopentyl-6-(difluoromethoxy)-1H-indol-2-yl]-N-(1,3-difluoropropan-2-yl)pyridine-3-sulfonamide] the same measures were 177 to 178 °C and less than 500 nM.

In the case of `Cc1cc2c(cc1F)c(C(=O)NC(C)C)c(-c1ccc(S(=O)(=O)N[C@@H](C)C(F)(F)F)cn1)n2C1CCCC1` [compound 763, 1-cyclopentyl-5-fluoro-6-methyl-N-(propan-2-yl)-2-(5-{[(2S)-1,1,1-trifluoropropan-2-yl]sulfamoyl}pyridin-2-yl)-1H-indole-3-carboxamide], the melting point was 234 to 236 °C. Moreover, in data set [1], the IC50 was in the range of 500 to 2000 nM.

Compound `Cc1ccc2c(c1)c(C#N)c(-c1ccc(S(=O)(=O)N[C@@H](C)C(F)(F)F)cn1)n2-c1ccc(F)cc1` [compound 920, 6-[3-cyano-1-(4-fluorophenyl)-5-methyl-1H-indol-2-yl]-N-[(2S)-1,1,1-trifluoropropan-2-yl]pyridine-3-sulfonamide] displayed a melting point of 195 to 200 °C. Besides, the concentration for half-maximal inhibition (IC50) in data set [1] is less than 500 nM. Compound `Cc1ccc2c(C#N)c(-c3ccc(S(=O)(=O)NC(C)(C)C(F)(F)F)cn3)n(-c3ccccc3)c2c1` [compound 585, 6-(3-cyano-6-methyl-1-phenyl-1H-indol-2-yl)-N-(1,1,1-trifluoro-2-methylpropan-2-yl)pyridine-3-sulfonamide] registered a melting point of 210 to 212 °C. Also, the IC50 in data set [1] was less than 500 nM. `C[C@H](NS(=O)(=O)c1ccc(-c2c(C#N)c3cc(F)c(OC(F)F)cc3n2C2CCCC2)nc1)C(F)(F)F` [compound 574, 6-[3-cyano-1-cyclopentyl-6-(difluoromethoxy)-5-fluoro-1H-indol-2-yl]-N-[(2S)-1,1,1-trifluoropropan-2-yl]pyridine-3-sulfonamide]: the melting point lay within 181 to 184 °C. Besides, in data set [1], the 50% inhibitory concentration (IC50) was less than 500 nM.

For the compound `Cc1ccc2c(C#N)c(-c3ccc(S(=O)(=O)N[C@H](C)C(F)(F)F)cn3)n(C(C)C)c2c1` [compound 210, 6-[3-cyano-6-methyl-1-(propan-2-yl)-1H-indol-2-yl]-N-[(2R)-1,1,1-trifluoropropan-2-yl]pyridine-3-sulfonamide], the melting point was 211 to 216 °C. For the same compound, the half-maximal inhibitory concentration (IC50) in data set [1] was less than 500 nM. With `N#Cc1c(-c2ccc(S(=O)(=O)NC(CF)CF)cn2)n(C2CCCC2)c2cc(OC(F)F)c(F)cc12` [compound 573, 6-[3-cyano-1-cyclopentyl-6-(difluoromethoxy)-5-fluoro-1H-indol-2-yl]-N-(1,3-difluoropropan-2-yl)pyridine-3-sulfonamide], the melting point lay in the range of 190 to 194 °C. The IC50 in data set [1] is less than 500 nM. As for `Cc1cc2c(cc1F)cc(-c1ccc(S(=O)(=O)N[C@@H](C)C(F)(F)F)cn1)n2-c1ccnc(F)c1` [compound 944, 6-[5-fluoro-1-(2-fluoropyridin-4-yl)-6-methyl-1H-indol-2-yl]-N-[(2S)-1,1,1-trifluoropropan-2-yl]pyridine-3-sulfonamide], the melting point was in the range of 176 to 180 °C. In addition, the IC50 in data set [1] lay within 500 to 2000 nM. Taken in the same sequence, the figures for `CCc1cc2c(cc1F)c(C(N)=O)c(-c1ccc(S(=O)(=O)N[C@@H](C)C(F)(F)F)cn1)n2-c1ncccn1` [compound 849, 6-ethyl-5-fluoro-1-(pyrimidin-2-yl)-2-(5-{[(2S)-1,1,1-trifluoropropan-2-yl]sulfamoyl}pyridin-2-yl)-1H-indole-3-carboxamide] were 235 to 236 °C and less than 500 nM. The compound `Cc1ccc2c(c1)c(C#N)c(-c1ncc(S(=O)(=O)N[C@@H](C)C3CC3)cn1)n2CC1CC1` [compound 561, 2-[3-cyano-1-(cyclopropylmethyl)-5-methyl-1H-indol-2-yl]-N-[(1S)-1-cyclopropylethyl]pyrimidine-5-sulfonamide] came in with a melting point of 174 to 178 °C. Further, the 50% inhibitory concentration (IC50) in data set [1] lay within 500 to 2000 nM. For `CCc1cc2c(cc1F)c(C#N)c(-c1ccc(S(=O)(=O)NC(C)(C)C)cn1)n2-c1ncccc1F` [compound 900, N-tert-butyl-6-[3-cyano-6-ethyl-5-fluoro-1-(3-fluoropyridin-2-yl)-1H-indol-2-yl]pyridine-3-sulfonamide] the same measures were 200 to 203 °C and 500 to 2000 nM.

`Cc1ccc2c(c1)c(C#N)c(-c1ncc(S(=O)(=O)NC(CF)CF)cn1)n2C1CCCC1` [compound 160, 2-(3-cyano-1-cyclopentyl-5-methyl-1H-indol-2-yl)-N-(1,3-difluoropropan-2-yl)pyrimidine-5-sulfonamide] showed a melting point of 202 to 207 °C. Further, the IC50 in data set [1] was less than 500 nM. For `C[C@H](NS(=O)(=O)c1cnc(-c2c(C#N)c3ccc(C4CC4)cc3n2C2CCCC2)nc1)C1CC1` [compound 254, 2-(3-cyano-1-cyclopentyl-6-cyclopropyl-1H-indol-2-yl)-N-[(1S)-1-cyclopropylethyl]pyrimidine-5-sulfonamide] the same measures were 185 to 189 °C and 500 to 2000 nM. Taken in the same sequence, the figures for `CC(NS(=O)(=O)c1cnc(-c2c(C#N)c3ccc(OC(F)F)cc3n2C2CCC2)nc1)C(F)(F)F` (centres unmarked) [compound 128, 2-[3-cyano-1-cyclobutyl-6-(difluoromethoxy)-1H-indol-2-yl]-N-(1,1,1-trifluoropropan-2-yl)pyrimidine-5-sulfonamide] were 227 to 229 °C and less than 500 nM. `Cc1ccc2c(c1)c(C#N)c(-c1ccc(S(=O)(=O)N[C@H](C)C(F)(F)F)cn1)n2CC1CC1` [compound 458, 6-[3-cyano-1-(cyclopropylmethyl)-5-methyl-1H-indol-2-yl]-N-[(2R)-1,1,1-trifluoropropan-2-yl]pyridine-3-sulfonamide] had a melting point of 166 to 172 °C. For the same compound, in data set [1], the IC50 is less than 500 nM.

Take `Cc1cc2c(cc1F)c(C#N)c(-c1ncc(S(=O)(=O)N[C@@H](C)C(F)(F)F)cc1C)n2-c1ccccn1` [compound 889, 6-[3-cyano-5-fluoro-6-methyl-1-(pyridin-2-yl)-1H-indol-2-yl]-5-methyl-N-[(2S)-1,1,1-trifluoropropan-2-yl]pyridine-3-sulfonamide]: the melting point was 197 to 202 °C. Besides, in data set [1], the IC50 is less than 500 nM.

The compound `Cc1ccc2c(c1)c(C#N)c(-c1ccc(S(=O)(=O)N[C@@H](C)C3CC3)cn1)n2C(C)C` [compound 564, 6-[3-cyano-5-methyl-1-(propan-2-yl)-1H-indol-2-yl]-N-[(1S)-1-cyclopropylethyl]pyridine-3-sulfonamide] returned a melting point of 170 to 173 °C. Besides, the IC50 in data set [1] was less than 500 nM. `C[C@H](NS(=O)(=O)c1ccc(-c2c(C#N)c3cc(F)ccc3n2-c2ccc(C(F)(F)F)cn2)nc1)C(F)(F)F` [compound 724, 6-{3-cyano-5-fluoro-1-[5-(trifluoromethyl)pyridin-2-yl]-1H-indol-2-yl}-N-[(2S)-1,1,1-trifluoropropan-2-yl]pyridine-3-sulfonamide]: the melting point fell in the range of 216 to 218 °C. The IC50 in data set [1] is 500 to 2000 nM. For `Cc1ccc2c(C#N)c(-c3ncc(S(=O)(=O)NC(CF)CF)cn3)n(C3CCCC3)c2c1F` [compound 586, 2-(3-cyano-1-cyclopentyl-7-fluoro-6-methyl-1H-indol-2-yl)-N-(1,3-difluoropropan-2-yl)pyrimidine-5-sulfonamide] the same measures were 226 to 232 °C and less than 500 nM. Regarding `CC(C)(C)NS(=O)(=O)c1ccc(-c2c(C#N)c3ccc(OC(F)F)cc3n2C2CCC2)nc1` [compound 543, N-tert-butyl-6-[3-cyano-1-cyclobutyl-6-(difluoromethoxy)-1H-indol-2-yl]pyridine-3-sulfonamide], the melting point was in the range of 178 to 180 °C.

`CC(C)NS(=O)(=O)c1cnc(-c2c(C#N)c3ccc(OC(F)F)cc3n2CC2CC2)nc1` [compound 170, 2-[3-cyano-1-(cyclopropylmethyl)-6-(difluoromethoxy)-1H-indol-2-yl]-N-(propan-2-yl)pyrimidine-5-sulfonamide] came in with a melting point of 182 to 184 °C. Still for that read-out and setting: as for `CC(C)NS(=O)(=O)c1ccc(-c2c(C#N)c3cc(C4CC4)ccc3n2C2CCC2)nc1` [compound 8, 6-(3-cyano-1-cyclobutyl-5-cyclopropyl-1H-indol-2-yl)-N-(propan-2-yl)pyridine-3-sulfonamide], the figure is 172 to 174 °C.

`N#Cc1c(-c2ccc(S(=O)(=O)NC(CO)CO)cn2)n(C2CCC2)c2cc(OC(F)F)ccc12` [compound 239, 6-[3-cyano-1-cyclobutyl-6-(difluoromethoxy)-1H-indol-2-yl]-N-(1,3-dihydroxypropan-2-yl)pyridine-3-sulfonamide] showed a melting point of 132 to 135 °C.

As for `C[C@@H](NS(=O)(=O)c1ccc(-c2c(C#N)c3ccc(C4CC4)cc3n2C2CCC2)nc1)C(F)(F)F` [compound 212, 6-(3-cyano-1-cyclobutyl-6-cyclopropyl-1H-indol-2-yl)-N-[(2R)-1,1,1-trifluoropropan-2-yl]pyridine-3-sulfonamide], the melting point was in the range of 192 to 196 °C. The same measure, in the same setting: as for `CC(C)NS(=O)(=O)c1ccc(-c2c(C#N)c3ccc(OC(F)F)cc3n2CC2CC2)nc1` [compound 13, 6-[3-cyano-1-(cyclopropylmethyl)-6-(difluoromethoxy)-1H-indol-2-yl]-N-(propan-2-yl)pyridine-3-sulfonamide], the figure is 154 to 156 °C; as for `CC(C)NS(=O)(=O)c1ccc(-c2c(C#N)c3cc(OC(F)F)ccc3n2C2CCC2)nc1` [compound 19, 6-[3-cyano-1-cyclobutyl-5-(difluoromethoxy)-1H-indol-2-yl]-N-(propan-2-yl)pyridine-3-sulfonamide], 148 to 153 °C.
